Several values for one entry are separate records, joined by “and”; a condition that tells them apart may be missing. Equal values may be shown once. Read-outs that look alike come from different tables or passages of the source. Square brackets hold non-standard residues; d marks the D form. Ends that are not written are not given here. Peptide text beside a SMILES is read from it. Pro(trans-4-F) = O=C(O)[C@@H]1C[C@@H](F)CN1; Pro(cis-4-F) = O=C(O)[C@@H]1C[C@H](F)CN1
What was measured:
Vinexin β SH3.3 domain [1] = target: T1, Vinexin β SH3.3 domain (Homo sapiens, UniProt O60504); test: 19F line width (apparent transverse relaxation) analysis of binding kinetics during titration; settings: fast exchange approximation, 298 K
T1 construct: The Vinexin β SH3.3 was obtained using recombinant expression of a glutathione-S-transferase (GST) fusion protein; GST (N, cleaved yes); made in house; host or cells: Escherichia coli (pGEX plasmids)
T1 sequence (O60504 612-671 limits assumed): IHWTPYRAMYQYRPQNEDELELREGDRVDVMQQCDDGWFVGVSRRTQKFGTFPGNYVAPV
Method: The exchange line broadening during the titration experiment also reports on the binding kinetics. Thus, the major ^19 F peaks were fitted using a Lorentzian line shape and the line widths obtained in this way provide an estimate of the apparent transverse relaxation constant R2‡ as a function of peptide concentration (Fig. 7b and c), which can be used to derive the binding kinetics. […]
Processing of 1D ^19 F spectra and quantification were performed using an open-source Python package dedicated to Fourier spectroscopies called “Spectrometry Processing Innovative Kernel” (SPIKE) (Chiron et al., 2016). […] Line fitting was done using the least-square minimizer of the Scipy optimize toolbox to find the optimal set of the signal parameters minimizing the squared differences between the experimental and calculated spectra. […]
Titrations were performed by successive addition of stock peptide solutions to a sample of SH3 protein at 314 µM in a 3 mm NMR tube. […] For every titration point, a 1D ^19 F spectrum and a ^1 H– ^15 N HSQC were recorded at 298K on the same spectrometer, taking advantage of the QCI-F probe. The ^1 H– ^15 N HSQC was recorded using the standard pulse sequence and a 3-9-19 WATERGATE water suppression element. The 200 points were recorded in the indirect dimension to achieve a final resolution of 7.0 and 18.8 Hz per point in the acquisition and indirect dimensions, respectively. […]

Vinexin β SH3.3 domain [2] = target: T1, Vinexin β SH3.3 domain; test: NMR titration, 1H-15N HSQC chemical shift perturbations of 15N-labelled SH3 domain; format: binding
Method: In order to measure the binding affinities between the Vinexin β SH3.3 domain and the model peptides, a titration experiment was performed where increasing amounts of peptide were added to a solution of ^15 N-labelled SH3 domain. Apart from MpRS and MpSR peptides, a titration was also performed with a non-fluorinated reference peptide. Just as for most SH3–PRM interaction studies, a gradual frequency shift of a subset of ^1 H– ^15 N correlation peaks in the ^1 H– ^15 N HSQC spectra was observed, indicative of fast exchange between bound and free states of the protein (Fig. 6a). Under this exchange regime, the chemical shifts provide an accurate measure of the bound protein fraction, enabling the determination of an equilibrium dissociation constant Kd (vide infra).
The MpRS and MpSR peptides were produced by solid-phase synthesis using fluorenylmethyloxycarbonyl (Fmoc) amino acids using a model 431A peptide synthesizer from Applied Biosystems (Foster City, CA, USA). Fmoc-protected (4 R )- and (4 S )-FPro amino acids were purchased from Bachem SA. Peptides were purified by reversed-phase HPLC and checked by electrospray ionization and time of flight mass spectrometry (ESI-TOF). The Vinexin β SH3.3 was obtained using recombinant expression of a glutathione-S-transferase (GST) fusion protein in Escherichia coli using pGEX plasmids (Lalevée et al., 2010). After thrombin cleavage, the protein was purified using size-exclusion chromatography and eluted with phosphate buffer (40 mM phosphate, NaCl 100 mM, DTT 2 mM, pH 7). Before titration experiments, a dialysis was performed using 1 and 3 kDa cut-off membrane for the peptide and the protein, respectively, and a common dialysis bath containing the buffer used in interaction experiments. Protein concentrations were determined by measuring the optical density (OD) at 280 nm (molar absorption coefficient 11 460 M ^-1 cm ^-1 ). Peptide concentrations were measured by ^1 H NMR by comparing the integrals of peptide resonances with those of tryptophan of known concentration in a sample containing small amounts (10–30 µM ) of both compounds in D 2 O as described (Kohler et al., 2015). For assignments, lyophilized powder of MpRS and MpSR peptides were dissolved in 170 µL of D 2 O for a final concentration of 1 mM in 3 mm tubes.
Titrations were performed by successive addition of stock peptide solutions to a sample of SH3 protein at 314 µM in a 3 mm NMR tube. In order to reduce the dilution of the initial protein solution and keep the aliquot volumes within values compatible with low pipetting errors (1 to 3 µL ), initial aliquots were added using stock solutions diluted by a factor of 2. The concentrations of the stock solutions were 5.1 and 5.7 mM for MpSR and MpRS, respectively. For every titration point, a 1D ^19 F spectrum and a ^1 H– ^15 N HSQC were recorded at 298K on the same spectrometer, taking advantage of the QCI-F probe. The ^1 H– ^15 N HSQC was recorded using the standard pulse sequence and a 3-9-19 WATERGATE water suppression element. The 200 points were recorded in the indirect dimension to achieve a final resolution of 7.0 and 18.8 Hz per point in the acquisition and indirect dimensions, respectively. The relaxation delay was set to 1 s resulting in a total acquisition time of 16 min. The 1D ^19 F spectra were recorded with a spectral width of 22.522 kHz. The number of scans was adapted to achieve a sufficient signal-to-noise ratio for each concentration of peptide. For the first titration point, at a peptide concentration of 50 µM , 1600 scans were recorded for a total acquisition time of 1 h and 6 min, while 250 scans (10 min acquisition time) were used for the large peptide concentrations.
The composite chemical shift was calculated using […], where ΔδN and ΔδH are the ^15 N and proton chemical shift differences measured between the free protein and the protein in the presence of a given amount of peptide. […]

[3] = target: T2, Vinexin β SH3.3 domain (third SH3 domain of the Vinexin β protein) (UniProt O60504 612-671); test: NMR titration; peptide stock added stepwise to 15N-labelled SH3 at 314 µM in a 3 mm tube, 298 K; 19F shifts of the peptide and 1H/15N shifts of the SH3 fitted simultaneously; 1:1 and 1:2 models compared; settings: both partners purified
T2 construct: Vinexin β, third SH3 domain (SH3.3); 15N-labelled for the titrations; source: E. coli, GST fusion protein (pGEX plasmids), thrombin cleavage, purified (size-exclusion chromatography)
T2 sequence (looked up): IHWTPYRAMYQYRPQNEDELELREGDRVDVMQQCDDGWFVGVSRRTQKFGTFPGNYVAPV

[4] = target: T2, Vinexin β SH3.3 domain (third SH3 …); test: NMR titration; same kind of titration, 298 K; only the 1H-15N chemical shift perturbations of the SH3 domain fitted, 1:1 model; settings: both partners purified
[5] = target: T2, Vinexin β SH3.3 domain (third SH3 …); test: NMR titration; 19F line widths (apparent R2) of the peptide against peptide concentration during the titration, fast-exchange approximation; kon fitted independently for each 19F signal, Kd taken from the shift fit; settings: both partners purified

CC(C)[C@H](NC(=O)[C@H](CCCNC(=N)N)NC(=O)[C@@H]1CCCN1C(=O)[C@@H]1CCCN1C(=O)[C@@H]1CCCN1C(=O)[C@@H]1C[C@@H](F)CN1C(=O)[C@@H]1CCCN1C(=O)[C@H](CO)NC(=O)[C@@H]1CCCN1C(=O)[C@@H]1C[C@H](F)CN1C(=O)[C@@H]1CCCN1C(=O)[C@@H]1CCCN1C(=O)[C@@H]1CCCN1)C(=O)N[C@@H](Cc1ccc(O)cc1)C(=O)N[C@@H](CCCCN)C(=O)O [MpSR] (H-PPP[Pro(cis-4-F)]PSP[Pro(trans-4-F)]PPPRVYK-OH)
kon (Vinexin β SH3.3 domain [1]; from 19F line widths of (4 R )-FPro8 signal, read-out: association kinetics constant kon, (4 R )-FPro8 signal): 1.2e+08 M⁻¹ s⁻¹ | kon (Vinexin β SH3.3 domain [1]; from 19F line widths of (4 S )-FPro4 signal, read-out: association kinetics constant kon, (4 S )-FPro4 signal): 9e+07 M⁻¹ s⁻¹

CC(C)[C@H](NC(=O)[C@H](CCCNC(=N)N)NC(=O)[C@@H]1CCCN1C(=O)[C@@H]1CCCN1C(=O)[C@@H]1CCCN1C(=O)[C@@H]1CCCN1C(=O)[C@@H]1CCCN1C(=O)[C@H](CO)NC(=O)[C@@H]1CCCN1C(=O)[C@@H]1CCCN1C(=O)[C@@H]1CCCN1C(=O)[C@@H]1CCCN1C(=O)[C@@H]1CCCN1)C(=O)N[C@@H](Cc1ccc(O)cc1)C(=O)N[C@@H](CCCCN)C(=O)O [non-fluorinated peptide] (H-PPPPPSPPPPPRVYK-OH; N-terminus and C-terminus assumed)
1H-15N composite chemical shift perturbation, Asn 15 (Vinexin β SH3.3 domain [2]; Vinexin β residue Asn 15): 1.093 | 1H-15N composite chemical shift perturbation, Asp 17 (Vinexin β SH3.3 domain [2]; Vinexin β residue Asp 17): 2.276 | 1H-15N composite chemical shift perturbation, Gln 14 (Vinexin β SH3.3 domain [2]; Vinexin β residue Gln 14): 1.949 | 1H-15N composite chemical shift perturbation, Gly 49 (Vinexin β SH3.3 domain [2]; Vinexin β residue Gly 49): 0.812 | 1H-15N composite chemical shift perturbation, Leu 21 (Vinexin β SH3.3 domain [2]; Vinexin β residue Leu 21): 0.988 | 1H-15N composite chemical shift perturbation, Thr 50 (Vinexin β SH3.3 domain [2]; Vinexin β residue Thr 50): 1.881 | 1H-15N composite chemical shift perturbation, Trp 37 (Vinexin β SH3.3 domain [2]; Vinexin β residue Trp 37): 2.011 | 1H-15N composite chemical shift perturbation, Val 39 (Vinexin β SH3.3 domain [2]; Vinexin β residue Val 39): 3.214 | 1H-15N composite chemical shift perturbation, Val 56 (Vinexin β SH3.3 domain [2]; Vinexin β residue Val 56): 1.319

B1: MpRS peptide (peptide)
peptide: PPP[Pro(trans-4-F)]PSP[Pro(cis-4-F)]PPPRVYK
notes: P at 4 and 8 stand for fluoroprolines; source: synthetic peptide (Fmoc solid-phase synthesis, reversed-phase HPLC)
Kd [3]: 273 ± 30 µM | stoichiometry N [3]: 1 | Kd [4]: 220 µM

B2: non-fluorinated reference peptide (peptide)
chain: PPPPPSPPPPPRVYK
modifications: Synthetic RAR-gamma-based peptide. Sequence converted from the three-letter residue list in Table 1 (Pro1-5, Ser6, Pro7-11, Arg12-Val13-Tyr14-Lys15), with plain proline at positions 4 and 8. The …
Kd [4]: 74 ± 25 µM

B3: MpSR peptide (peptide)
peptide: PPP[Pro(cis-4-F)]PSP[Pro(trans-4-F)]PPPRVYK
notes: P at 4 and 8 stand for fluoroprolines; Two segments of five prolines separated by one serine, followed by RVYK; source: synthetic peptide (Fmoc solid-phase synthesis, reversed-phase HPLC)
kon [5]: 9e+07 M⁻¹ s⁻¹ and 1.2e+08 M⁻¹ s⁻¹ | Kd [3]: 96 ± 30 µM | stoichiometry N [3]: 1 | Kd [4]: 75 µM

Reference: publication PMC10539733, “Fluorine NMR study of proline-rich sequences using fluoroprolines” (Magnetic resonance, 2021)
